The results in this text go back to EPA's ToxValDB 9.5 (doi:10.2903/j.efsa.2008.125r).

SMILES strings stand for the structures. In brackets after ≈: the same amount, converted by molar mass. Bounds are passed on as bounds.

One data set has as its system Apis mellifera. The following applies: acute; duration: 48 hours; oral; unspecified; mortality.
For another data set, the system named is Canidae. The following applies: chronic; duration: 1 years; oral; Dog Other; hematological.
For another data set, the system named is Coturnix japonica. Conditions: acute, oral, mortality.
The subject of a further data set is Tagia sp. The following applies: acute; duration: 14 days; mortality.
Another data set concerns Anas platyrhynchos. The following applies: for LD50: oral, mortality.
Another data set relates to Oncorhynchus mykiss. The following applies: acute; duration: 96 hours; mortality.
For another data set, the system named is Colinus virginianus. Conditions: for LD50: acute, oral, mortality.
A further data set concerns Daphnia magna. The following applies: chronic/long-term; duration: 21 days; reproduction.

With `CCCCCCCCCCCCC1=C(OC(C)=O)C(=O)c2ccccc2C1=O` [Acequinocyl], the LD50 with Apis mellifera is more than 100 µg/piece; in the data set with Coturnix japonica (diet), more than 847 mg/kg; in the data set on Coturnix japonica, more than 1940 mg/kg; with Rattus norvegicus (acute, oral, mortality), more than 4860 mg/kg; in the data set with Anas platyrhynchos (acute, unspecified), more than 1940 mg/kg; with Anas platyrhynchos (short-term, feed), more than 1340 mg/kg. Moreover, the LD50 was more than 159 mg/kg in the data set on Colinus virginianus (diet) and more than 300 mg/kg in the data set on Colinus virginianus. Moreover, the NOAEL in the data set on Canidae was 5 mg/kg-day; in the data set on Rattus norvegicus (acute, oral, hematological), 8 mg/kg-day; in the data set with Rattus norvegicus (chronic, duration: 2 years, clinical signs) it was 2.3 mg/kg-day; in the data set with Rattus norvegicus (reproduction developmental, clinical signs), 6.9 mg/kg-day. For the same compound, the LEL in the data set with Typhlodromus pyri (acute, duration: 7 days, mortality) was determined as 300 g/ha; with Typhlodromus pyri (not reported, reproduction), 300 g/ha. Besides, the LC50 is more than 1000 mg/kg in the data set on Tagia sp. and 65 µg/mL (≈ 169 µM) with Oncorhynchus mykiss. Further, the NOEL in the data set on Anas platyrhynchos (reproductive) came out at 7.48 mg/kg; in the data set with Colinus virginianus (reproduction developmental), 217 mg/kg-day. The compound also gave an NOEC in the data set with Daphnia magna of 0.00098 mg/L.
